The results in this text go back to US20030144360A1, “Composition and method for modulating BAR/FXR receptor activity” (Allergan Sales, Inc., priority 2001, published 2003).

The subject of one data set is Caco-2 cells. Kind of data set: Northern blot analysis of BAR/FXR target genes in differentiated Caco-2 cells. The class given is cell-based, human. Particulars: for IBABP expression / SHP expression: 10 μM, 24 hours. On the procedure: Caco-2 cells were maintained for 20 days post-confluence to allow differentiation. They were fed twice a week with their regular media during this period.
(§1) One day prior to treatment, confluent HepG2 and differentiated Caco-2 cells were switched to phenol red-free media containing resin-charcoal stripped FBS and then treated for and additional 24 hours with the indicated compounds. Total RNA was isolated using the Trizol reagent. Northern blots were prepared from polyA^+ RNA using the Oligotex method (Qiagen) and analyzed with the following probes: human CYP7A (accession #M93133) nucleotides 1617-2576 (Karam and Chiang, 185 Biochem. Biophys. Res. Commun. 588 (1992)), human SHP (accession #L76571) nucleotides 888-1355, human IBABP (accession # A1311734), an EST containing the entire coding sequence of IBABP.
(§2) We next tested the ability of AGN 29 and AGN 31 to regulate BAR/FXR target genes. We used the hepatoma cell line HepG2 as a hepatocyte model as this cell line has been used extensively to study cholesterol metabolism and bile acid-mediated gene regulation. We monitored the expression of two well known BAR/FXR target genes: CYP7A, the rate-limiting enzyme for bile acid synthesis, is down regulated by bile acids in HepG2 cells.

The test system of the next data set is HepG2 cells. Kind of data set: Northern blot analysis of BAR/FXR target genes in HepG2 cells. The format is cell-based, human. As to conditions: for BAR/FXR expression / CYP7A expression / GAPDH expression / transcription of SHP: 24 hours. On the procedure: as §1, §2
To verify that AGN34 represses BAR/FXR […], we looked at its effect on BAR/FXR target genes in cultured cells by Northern blot analysis.

Data set [1] deals with T1, BAR/FXR (BAR-RXR heterodimer) (UniProt P19793+Q62735).
T1 sequence (Q62735 1-469): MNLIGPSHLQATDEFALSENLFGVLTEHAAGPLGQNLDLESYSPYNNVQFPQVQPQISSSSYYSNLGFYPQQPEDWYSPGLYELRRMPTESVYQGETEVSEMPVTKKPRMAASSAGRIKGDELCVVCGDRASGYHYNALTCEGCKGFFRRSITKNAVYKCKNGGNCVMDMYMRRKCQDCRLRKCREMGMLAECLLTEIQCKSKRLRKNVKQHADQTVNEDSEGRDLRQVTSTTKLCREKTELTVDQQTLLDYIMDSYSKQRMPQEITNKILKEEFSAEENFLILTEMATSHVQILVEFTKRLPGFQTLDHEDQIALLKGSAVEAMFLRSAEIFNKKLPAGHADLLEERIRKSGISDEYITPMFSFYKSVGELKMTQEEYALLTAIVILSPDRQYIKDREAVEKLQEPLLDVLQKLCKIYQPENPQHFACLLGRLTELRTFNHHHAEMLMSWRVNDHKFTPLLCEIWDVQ
T1 sequence (P19793 1-462): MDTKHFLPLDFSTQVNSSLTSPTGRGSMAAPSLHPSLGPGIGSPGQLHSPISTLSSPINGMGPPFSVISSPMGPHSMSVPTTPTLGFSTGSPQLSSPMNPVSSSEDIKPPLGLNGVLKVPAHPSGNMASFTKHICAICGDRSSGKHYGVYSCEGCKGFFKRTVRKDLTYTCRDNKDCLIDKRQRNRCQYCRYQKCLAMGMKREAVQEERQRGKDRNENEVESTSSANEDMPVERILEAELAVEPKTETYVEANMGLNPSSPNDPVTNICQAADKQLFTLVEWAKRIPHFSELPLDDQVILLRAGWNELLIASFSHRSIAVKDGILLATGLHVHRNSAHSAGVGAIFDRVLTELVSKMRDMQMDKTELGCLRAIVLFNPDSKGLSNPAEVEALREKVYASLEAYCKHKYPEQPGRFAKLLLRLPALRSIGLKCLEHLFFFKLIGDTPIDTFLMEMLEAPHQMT
Description: Transient cotransfection luciferase reporter assay, full-length BAR/FXR and RXR in CV-1 cells. Further details: repression of the BAR/RXR heterodimer: dose or concentration left out as unconfirmed. Particulars: for activation of BAR/FXR (luciferase expression): 5 μM, 40 hours. (In general: A reporter such as luciferase makes a cellular process visible.)

For `Cc1cc2c(cc1/C(=C/c1ccc(C(=O)O)cc1)[Si](C)(C)C)C(C)(C)CCC2(C)C` [AGN 29, (Z)-4-[2-(3,5,5,8,8-Pentamethy1-5,6,7,8-tetrahydronaphthalen-2-yl)-2-(trimethylsilyl)vinyl]benzoic Acid], in the data set with Caco-2 cells, the IBABP expression entry was “strongly induced” and the SHP expression entry is given as “strongly induced”. For the same molecule, in the data set with HepG2 cells (10 μM), the BAR/FXR expression result was “no effect”, the CYP7A expression result is “repress”, the GAPDH expression result is on record as “no effect” and the “transcription of SHP” value was “induce”. Moreover, in data set [1], the concentration giving a half-maximal response (EC50) (as a rule, the concentration needed to bring the measured effect to its halfway point) is around 2000 nM and the “activation of BAR/FXR (luciferase expression)” value worked out at 91 fold.

With `CCCC/C(=C\c1ccc(C(=O)O)cc1)c1ccc2c(c1)C(C)(C)CCC2(C)C` [AGN 31, 4-[2-(5,5,8,8-Tetramethyl-5,6,7,8-tetrahydronaphthalen-2-yl)hex-1-enyl]benzoic Acid], in the data set with Caco-2 cells, the IBABP expression result was “strongly induced” and the SHP expression entry is recorded as “strongly induced”. In addition, in the data set with HepG2 cells (10 μM), the BAR/FXR expression result is listed as “no effect”, the CYP7A expression result is reported as “repress”, the GAPDH expression result was “no effect” and the “transcription of SHP” value is listed as “induce”. Moreover, in data set [1], the 50% effective concentration (EC50) was around 2000 nM and the “activation of BAR/FXR (luciferase expression)” value is on record as 85 fold.

On to `CCCCCCOc1c(\C(C)=C/C=C/C(C)=C/C(=O)O)cc(C(C)C)cc1C(C)C` [AGN 34, (2E, 4E, 6Z)-7-(2-Hexyloxy-3,5-diisopropylphenyl)-3-methylocta-2,4,6-trienoic Acid], for which the “basal SHP levels” value is reported as “did not affect” in the data set on Caco-2 cells (1 μM AGN 34, 24 hours) and “did not affect” in the data set with HepG2 cells (1 μM AGN 34, 24 hours). Moreover, the “CDCA-induced IBABP levels” value in the data set on Caco-2 cells (100 μM CDCA + 1 μM AGN34, 24 hours) is given as “reduced the induced IBABP levels close to basal levels”. The CYP7A expression result is on record as “repressed” with HepG2 cells (AGN 34 alone); “repressed even further” in the data set on HepG2 cells (combination of AGN 34 and CDCA). The “repression of the BAR/RXR heterodimer” value in data set [1] is recorded as around 10 fold. For the same molecule, the “repression of CDCA-activated transcription” value in data set [1] (0.03 μM AGN 34, constant concentration of CDCA) is on record as “approximately 85%”. Moreover, the “repression of CDCA-activated BAR-mediated transcription” value in data set [1] (50 μM CDCA + 1 μM AGN 34) is listed as around 10 fold. Also, in data set [1] (AGN 34 (1 μM) without CDCA), the “basal activity of luciferase gene expression” value is recorded as “did not affect”. Besides, the “concentration showing maximal activity (repression)” value in data set [1] (constant concentration of CDCA) was 1 µM.
